According to US20170246228A1, “METHOD FOR SUPPRESSING PROLIFERATION AND/OR INDUCING APOPTOSIS OF CANCER CELLS” (Maruhachi Muramatsu, Inc., priority 2016, published 2017):

Tested on: MDA-MB-231 cells
Test: Cell proliferation of MDA-MB-231 cells with inhibitors that induce cell-cycle arrest, 3 days of culture
Format: cell-based, human
Conditions: absence of S. horneri active component, butyrate 10 and 100 μM, roscovitine 10 and 100 nM, sulforaphane 1 and 10 nM, FIG. 2(A)
Method: Cells were detached from each culture dishes using 0.2% trpysin plus 0.02% EDTA in Ca^2+/Mg^2+-free PBS for 2 min at 37° C., cells were collected after centrifugation. Cells were resuspended on PBS solution and stained with eosin. Cell numbers were counted under a microscope using a Hemocytometer plate. For each dish, we took the average of two countings.
Data are expressed as the mean±standard deviation (SD). Statistical significance was determined using GraphPad InStat version 3 for Windows XP (GraphPad Software Inc. La Jolla, Calif.). Multiple comparisons were performed by one-way analysis of variance (ANOVA) with Tukey-Kramer multiple comparisons post-test for parametric data as indicated. Data indicated P<0.05 was considered statistically significant.
Breast cancer MDA-MB-231 cells (1×10^5/ml per well) were cultured in a 24-well plate in DMEM containing 10% FBS and 1% P/S for 3 days in the presence or absence of S. horneri active component (50 μg/ml) with or without sodium butyrate (10 and 100 μM), roscovitine (10 and 100 nM) or sulforaphane (1 and 10 nM). Upon completion of culture, the cells were detached from wells, and the number of cells was counted and statistical processing was performed in accordance with the methods described in 2-1-2 and 2-1-3.

SMILES	proliferation of MDA-MB-231 cells in the presence of the inhibitor alone
CCCC(=O)[O-].[Na+] [butyrate, sodium butyrate]	suppressed
CC[C@H](CO)Nc1nc(NCc2ccccc2)c2ncn(C(C)C)c2n1 [roscovitine]	suppressed
C[S+]([O-])CCCCN=C=S (stereo not drawn) [sulforaphane]	suppressed
